{
  "source": "PubChem BioAssay AID1845207",
  "about": "(Molecular Pharmacology Branch, DTP, NCI, 2023)",
  "system": "NCI-H1876 tumor spheroid viability",
  "assay": "Anticancer human tumor NCI-H1876 cell line growth inhibition;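 also: spheroids exposed to compounds for seven days before the viability read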;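 as to viability, T/C: percent of DMSO vehicle control viability so 100% = vehicle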",
  "conditions": "spheroids with HUVEC and MSC; for IC50: curve of first compound; for viability, T/C: stronger effect = lower value",
  "how_it_was_run": "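Complex tumor spheroids combined malignant cells with endothelial cells and mesenchymal stem cells. DNA-damaging drugs and DNA repair inhibitors were tested alone and in combination, at half-log dilutions down from clinical Cmax (top 10 microM if Cmax unknown), 0.25% DMSO final.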",
  "data": [
    {"compound": "Cc1sc2c(c1C)C(c1ccc(Cl)cc1)=NC(CC(=O)Nc1ccc(O)cc1)c1nnc(C)n1-2", "note": "(stereo not given) + COc1cc2c(cc1O)CCNC21CSC2c3c(OC(C)=O)c(C)c4c(c3C(COC1=O)N1C(O)C3Cc5cc(C)c(OC)c(O)c5C(C21)N3C)OCO4", "values": [
      {"measurement": "IC50", "setting": "second compound 30 pM", "value": 265, "unit": "nM"},
      {"measurement": "IC50", "setting": "second compound 94.9 pM", "value": 148, "unit": "nM"},
      {"measurement": "IC50", "setting": "second compound 0.0003 µM", "value": "< 9.49", "unit": "nM"},
      {"measurement": "IC50", "setting": "second compound 0.000949 µM", "value": "< 9.49", "unit": "nM"},
      {"measurement": "IC50", "setting": "second compound 0.003 µM", "value": "< 9.49", "unit": "nM"},
      {"measurement": "viability, T/C", "setting": "second compound 30 pM, first compound 0.00949 µM", "value": 104, "unit": "%"},
      {"measurement": "viability, T/C", "setting": "second compound 30 pM, first compound 0.03 µM", "value": 108, "unit": "%"},
      {"measurement": "viability, T/C", "setting": "second compound 30 pM, first compound 0.0949 µM", "value": 104, "unit": "%"},
      {"measurement": "viability, T/C", "setting": "second compound 30 pM, first compound 0.3 µM", "value": 43.3, "unit": "%"},
      {"measurement": "viability, T/C", "setting": "second compound 30 pM, first compound 0.949 µM", "value": 17.1, "unit": "%"},
      {"measurement": "viability, T/C", "setting": "second compound 30 pM, first compound 3 µM", "value": 8.32, "unit": "%"},
      {"measurement": "viability, T/C", "setting": "second compound 94.9 pM, first compound 0.00949 µM", "value": 100, "unit": "%"},
      {"measurement": "viability, T/C", "setting": "second compound 94.9 pM, first compound 0.03 µM", "value": 95.4, "unit": "%"},
      {"measurement": "viability, T/C", "setting": "second compound 94.9 pM, first compound 0.0949 µM", "value": 60.6, "unit": "%"},
      {"measurement": "viability, T/C", "setting": "second compound 94.9 pM, first compound 0.3 µM", "value": 30.8, "unit": "%"},
      {"measurement": "viability, T/C", "setting": "second compound 94.9 pM, first compound 0.949 µM", "value": 9.48, "unit": "%"},
      {"measurement": "viability, T/C", "setting": "second compound 94.9 pM, first compound 3 µM", "value": 5.87, "unit": "%"},
      {"measurement": "viability, T/C", "setting": "second compound 0.0003 µM, first compound 0.00949 µM", "value": 29.3, "unit": "%"},
      {"measurement": "viability, T/C", "setting": "second compound 0.0003 µM, first compound 0.03 µM", "value": 23.2, "unit": "%"},
      {"measurement": "viability, T/C", "setting": "second compound 0.0003 µM, first compound 0.0949 µM", "value": 22.7, "unit": "%"},
      {"measurement": "viability, T/C", "setting": "second compound 0.0003 µM, first compound 0.3 µM", "value": 4.78, "unit": "%"},
      {"measurement": "viability, T/C", "setting": "second compound 0.0003 µM, first compound 0.949 µM", "value": 2.87, "unit": "%"},
      {"measurement": "viability, T/C", "setting": "second compound 0.0003 µM, first compound 3 µM", "value": 3.05, "unit": "%"},
      {"measurement": "viability, T/C", "setting": "second compound 0.000949 µM, first compound 0.00949 µM", "value": 3.88, "unit": "%"},
      {"measurement": "viability, T/C", "setting": "second compound 0.000949 µM, first compound 0.03 µM", "value": 2.86, "unit": "%"},
      {"measurement": "viability, T/C", "setting": "second compound 0.000949 µM, first compound 0.0949 µM", "value": 1.98, "unit": "%"},
      {"measurement": "viability, T/C", "setting": "second compound 0.000949 µM, first compound 0.3 µM", "value": 2.62, "unit": "%"},
      {"measurement": "viability, T/C", "setting": "second compound 0.000949 µM, first compound 0.949 µM", "value": 1.67, "unit": "%"},
      {"measurement": "viability, T/C", "setting": "second compound 0.000949 µM, first compound 3 µM", "value": 2.3, "unit": "%"},
      {"measurement": "viability, T/C", "setting": "second compound 0.003 µM, first compound 0.00949 µM", "value": 0.46, "unit": "%"},
      {"measurement": "viability, T/C", "setting": "second compound 0.003 µM, first compound 0.03 µM", "value": 0.43, "unit": "%"},
      {"measurement": "viability, T/C", "setting": "second compound 0.003 µM, first compound 0.0949 µM", "value": 0.51, "unit": "%"},
      {"measurement": "viability, T/C", "setting": "second compound 0.003 µM, first compound 0.3 µM", "value": 0.57, "unit": "%"},
      {"measurement": "viability, T/C", "setting": "second compound 0.003 µM, first compound 0.949 µM", "value": 0.25, "unit": "%"},
      {"measurement": "viability, T/C", "setting": "second compound 0.003 µM, first compound 3 µM", "value": 0.65, "unit": "%"}
    ]}
  ]
}
